One assay has as its system THP-1 cells. In words: TNFα generation assay. As to conditions: Homo sapiens, THP-1, THP-1 cells; Table 22; read-out: IC50 in TNFα generation assay. It is filed as cell-based, human. The essentials: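 Secreted TNFα in supernatant quantified by ELISA or AlphaLISA after 7 h culture on human IgG-coated wells (10 μg/ml coating). Cells were IFN-γ-differentiated THP-1 (10 ng/ml, 2 days), exposed to compound for 30 min at room temperature before plating.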

Assay [1] addresses T1, glutathione S-transferase (GST)-fused full-length human Syk protein (Homo sapiens, UniProt P43405).
T1 construct: (GST)-fused full-length human Syk protein; GST (glutathione S-transferase); purchased Carna Biosciences
In words: Syk enzyme assay. It counts as biochemical. As to conditions: Syk enzyme assay, Test Example 1; read-out: IC50 of Syk-inhibitory activity. The essentials: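 GST-tagged full-length human Syk (baculovirus) preincubated with compound 15 min at room temperature (pH 7.0, 10 mM MgCl2), then reacted 40 min with 0.4 μM biotinylated peptide substrate and 27 μM ATP (final). Phosphorylation read by HTRF (615/665 nm) after EDTA stop; IC50 reported.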

For `COc1ccc2cc(Nc3nc(N[C@@H](CN)CC4CC4)c(F)cc3C(N)=O)cnc2c1` [Example 006-215, (R)-6-((1-amino-3-cyclopropylpropan-2-yl)amino)-5-fluoro-2-((7-methoxyquinolin-3-yl)amino)nicotinamide], the IC50 with THP-1 cells was 65 to 130 nM; in assay [1], < 10 nM.

For `C[C@H](N)[C@@H](C)Nc1nc(Nc2cncc(Cl)c2)c(C(N)=O)cc1F` [Example 006-216, 6-(((2R,3S)-3-aminobutan-2-yl)amino)-2-((5-chloropyridin-3-yl)amino)-5-fluoronicotinamide], the IC50 was 65 to 130 nM in the assay on THP-1 cells and 10 to 50 nM in assay [1].

With `C[C@H](N)[C@@H](CC1CC1)Nc1nc(Nc2ccc3ncccc3c2)c(C(N)=O)cc1F` [Example 006-217, 6-(((2R,3S)-3-amino-1-cyclopropylbutan-2-yl)amino)-5-fluoro-2-((quinolin-6-yl)amino)nicotinamide], the IC50 with THP-1 cells is < 65 nM; in assay [1], < 10 nM.

As for `CC[C@@H](Nc1nc(Nc2cncc(-n3cccn3)c2)c(C(N)=O)cc1F)[C@H](C)N` [Example 006-218, 2-((5-(1H-pyrazol-1-yl)pyridin-3-yl)amino)-6-(((2S,3R)-2-aminopentan-3-yl)amino)-5-fluoronicotinamide], the results for the IC50 (in the assay with THP-1 cells; in assay [1]) were 65 to 130 nM and < 10 nM, respectively.

`CCC[C@@H](Nc1nc(Nc2ccnc(-c3ccco3)c2)c(C(N)=O)cc1F)[C@H](C)N` [Example 006-220, 6-(((2S,3R)-2-aminohexan-3-yl)amino)-5-fluoro-2-((2-(furan-2-yl)pyridin-4-yl)amino)nicotinamide]: the values for the IC50 (with THP-1 cells; in assay [1]) were < 65 nM and < 10 nM, respectively.

Consider `CCC[C@@H](Nc1nc(Nc2ccnc(-n3nccn3)c2)c(C(N)=O)cc1F)[C@H](C)N` [Example 006-221, 2-((2-(2H-1,2,3-triazol-2-yl)pyridin-4-yl)amino)-6-(((2S,3R)-2-aminohexan-3-yl)amino)-5-fluoronicotinamide], for which the IC50 was 65 to 130 nM with THP-1 cells and < 10 nM in assay [1].

As to `CCC[C@@H](Nc1nc(Nc2cncc(-c3ccccc3F)c2)c(C(N)=O)cc1F)[C@H](C)N` [Example 006-222, 6-(((2S,3R)-2-aminohexan-3-yl)amino)-5-fluoro-2-((5-(2-fluorophenyl)pyridin-3-yl)amino)nicotinamide], the results for the IC50 (in the assay on THP-1 cells; in assay [1]) were 65 to 130 nM and < 10 nM, respectively.

Take `CCC[C@@H](Nc1nc(Nc2cncc(C3CC3)c2)c(C(N)=O)cc1F)[C@H](C)N` [Example 006-223, 6-(((2S,3R)-2-aminohexan-3-yl)amino)-2-((5-cyclopropylpyridin-3-yl)amino)-5-fluoronicotinamide]: the IC50 in the assay on THP-1 cells is < 65 nM; in assay [1], < 10 nM.

For `C[C@@H](N)[C@@H](C)Nc1nc(Nc2ccc3ncccc3c2)c(C(N)=O)cc1F` [Example 006-224, 6-(((2R,3R)-3-aminobutan-2-yl)amino)-5-fluoro-2-((quinolin-6-yl)amino)nicotinamide], the IC50 is < 65 nM in the assay on THP-1 cells and 10 to 50 nM in assay [1].

Regarding `CC(C)C[C@H](CN)Nc1nc(Nc2ccc3cnn(C)c3c2)c(C(N)=O)cc1F` [Example 006-226, (R)-6-((1-amino-4-methylpentan-2-yl)amino)-5-fluoro-2-((1-methyl-1H-indazol-6-yl)amino)nicotinamide], the IC50 in the assay with THP-1 cells was 65 to 130 nM; in assay [1], < 10 nM.

`CC(C)C[C@H](CN)Nc1nc(Nc2cccc3c2cnn3C)c(C(N)=O)cc1F` [Example 006-227, (R)-6-((1-amino-4-methylpentan-2-yl)amino)-5-fluoro-2-((1-methyl-1H-indazol-4-yl)amino)nicotinamide]: the IC50 in the assay with THP-1 cells was 130 to 200 nM; in assay [1] it was < 10 nM.

For the molecule `CC(C)C[C@H](CN)Nc1nc(Nc2ccc3cccnc3c2)c(C(N)=O)cc1F` [Example 006-228, (R)-6-((1-amino-4-methylpentan-2-yl)amino)-5-fluoro-2-((quinolin-7-yl)amino)nicotinamide], the IC50 in the assay on THP-1 cells was 130 to 200 nM; in assay [1], < 10 nM.

For the molecule `CC(C)C[C@H](CN)Nc1nc(Nc2cccc3ncccc23)c(C(N)=O)cc1F` [Example 006-229, (R)-6-((1-amino-4-methylpentan-2-yl)amino)-5-fluoro-2-((quinolin-5-yl)amino)nicotinamide], the IC50 in the assay on THP-1 cells is 65 to 130 nM; in assay [1], < 10 nM.

For the molecule `COc1ccc2ncc(Nc3nc(N[C@@H](CN)CC(C)C)c(F)cc3C(N)=O)cc2c1` [Example 006-232, (R)-6-((1-amino-4-methylpentan-2-yl)amino)-5-fluoro-2-((6-methoxyquinolin-3-yl)amino)nicotinamide], the IC50 with THP-1 cells was 130 to 200 nM; in assay [1] it was < 10 nM.

In the case of `Cc1ccc(Nc2nc(N[C@@H](CN)CC(C)C)c(F)cc2C(N)=O)cn1` [Example 006-233, (R)-6-((1-amino-4-methylpentan-2-yl)amino)-5-fluoro-2-((6-methylpyridin-3-yl)amino)nicotinamide], the IC50 was in the range of 130 to 200 nM in the assay with THP-1 cells and 10 to 50 nM in assay [1].

Take `COc1cc(Nc2nc(N[C@@H](CN)CC(C)C)c(F)cc2C(N)=O)ccn1` [Example 006-234, (R)-6-((1-amino-4-methylpentan-2-yl)amino)-5-fluoro-2-((2-methoxypyridin-4-yl)amino)nicotinamide]: the IC50 was 65 to 130 nM in the assay with THP-1 cells and < 10 nM in assay [1].

On to `CCC[C@@H](Nc1nc(Nc2ccc3c(cnn3C)c2)c(C(N)=O)cc1F)[C@H](C)N` [Example 006-236, 6-(((2S,3R)-2-aminohexan-3-yl)amino)-5-fluoro-2-((1-methyl-1H-indazol-5-yl)amino)nicotinamide], for which the figures for the IC50 (in the assay with THP-1 cells; in assay [1]) were < 65 nM and < 10 nM, respectively.

As for `CCC[C@@H](Nc1nc(Nc2ccc3c(cnn3CC)c2)c(C(N)=O)cc1F)[C@H](C)N` [Example 006-237, 6-(((2S,3R)-2-aminohexan-3-yl)amino)-2-((1-ethyl-1H-indazol-5-yl)amino)-5-fluoronicotinamide], the IC50 with THP-1 cells is < 65 nM; in assay [1], < 10 nM.

As to `CCC[C@@H](Nc1nc(Nc2cnc3cc(OCCOC)ccc3c2)c(C(N)=O)cc1F)[C@H](C)N` [Example 006-238, 6-(((2S,3R)-2-aminohexan-3-yl)amino)-5-fluoro-2-((7-(2-methoxyethoxy)quinolin-3-yl)amino)nicotinamide], the figures for the IC50 (in the assay on THP-1 cells; in assay [1]) were < 65 nM and < 10 nM, respectively.

As to `CCC[C@@H](Nc1nc(Nc2ccc3c(OC)nccc3c2)c(C(N)=O)cc1F)[C@H](C)N` [Example 006-239, 6-(((2S,3R)-2-aminohexan-3-yl)amino)-5-fluoro-2-((1-methoxyisoquinolin-6-yl)amino)nicotinamide], the IC50 in the assay with THP-1 cells was < 65 nM; in assay [1], < 10 nM.

Consider `CCC[C@@H](Nc1nc(Nc2ccc3nccnc3c2)c(C(N)=O)cc1F)[C@H](C)N` [Example 006-240, 6-(((2S,3R)-2-aminohexan-3-yl)amino)-5-fluoro-2-((quinoxalin-6-yl)amino)nicotinamide], for which the figures for the IC50 (in the assay with THP-1 cells; in assay [1]) were < 65 nM and < 10 nM, respectively.

On to `CCC[C@@H](Nc1nc(Nc2cncc3ccccc23)c(C(N)=O)cc1F)[C@H](C)N` [Example 006-241, 6-(((2S,3R)-2-aminohexan-3-yl)amino)-5-fluoro-2-((isoquinolin-4-yl)amino)nicotinamide], for which the results for the IC50 (in the assay on THP-1 cells; in assay [1]) were 65 to 130 nM and < 10 nM, respectively.

With `CCC[C@@H](Nc1nc(Nc2cnc3ccc(OC)cc3c2)c(C(N)=O)cc1F)[C@H](C)N` [Example 006-242, 6-(((2S,3R)-2-aminohexan-3-yl)amino)-5-fluoro-2-((6-methoxyquinolin-3-yl)amino)nicotinamide], the IC50 was 65 to 130 nM in the assay with THP-1 cells and < 10 nM in assay [1].

For the molecule `CCC[C@@H](Nc1nc(Nc2ccc3cccnc3c2)c(C(N)=O)cc1F)[C@H](C)N` [Example 006-244, 6-(((2S,3R)-2-aminohexan-3-yl)amino)-5-fluoro-2-((quinolin-7-yl)amino)nicotinamide], the IC50 in the assay on THP-1 cells is 65 to 130 nM; in assay [1], < 10 nM.

In the case of `CCC[C@@H](Nc1nc(Nc2ccc3nc(C)cnc3c2)c(C(N)=O)cc1F)[C@H](C)N` [Example 006-245, 6-(((2S,3R)-2-aminohexan-3-yl)amino)-5-fluoro-2-((2-methylquinoxalin-6-yl)amino)nicotinamide], the IC50 in the assay with THP-1 cells is 65 to 130 nM; in assay [1] it was < 10 nM.

Take `CCC[C@@H](Nc1nc(Nc2cncc(-c3ccccc3)c2)c(C(N)=O)cc1F)[C@H](C)N` [Example 006-247, 6-(((2S,3R)-2-aminohexan-3-yl)amino)-5-fluoro-2-((5-phenylpyridin-3-yl)amino)nicotinamide]: the IC50 is 130 to 200 nM in the assay with THP-1 cells and < 10 nM in assay [1].

Turning to `CCC[C@@H](Nc1nc(Nc2cc(OC)nc(OC)c2)c(C(N)=O)cc1F)[C@H](C)N` [Example 006-248, 6-(((2S,3R)-2-aminohexan-3-yl)amino)-2-((2,6-dimethoxypyridin-4-yl)amino)-5-fluoronicotinamide], the IC50 in the assay with THP-1 cells is 65 to 130 nM; in assay [1], < 10 nM.

Take `CCC[C@@H](Nc1nc(Nc2cnc(C)c(C3CC3)c2)c(C(N)=O)cc1F)[C@H](C)N` [Example 006-250, 6-(((2S,3R)-2-aminohexan-3-yl)amino)-2-((5-cyclopropyl-6-methylpyridin-3-yl)amino)-5-fluoronicotinamide]: the IC50 is 130 to 200 nM in the assay with THP-1 cells and < 10 nM in assay [1].

As to `CCC[C@@H](Nc1nc(Nc2cccc3c2cnn3C)c(C(N)=O)cc1F)[C@H](C)N` [Example 006-251, 6-(((2S,3R)-2-aminohexan-3-yl)amino)-5-fluoro-2-((1-methyl-1H-indazol-4-yl)amino)nicotinamide], the IC50 is < 65 nM in the assay with THP-1 cells and < 10 nM in assay [1].

Source of the values: US8895585B2, “Nicotinamide derivative or salt thereof” (FUJIFILM Corporation, priority 2010, dated 2014).
